# From a melting point compilation (Tetko et al.; mined from patent text by program, amines drawn as free bases though some values may be those of a salt)
row,Structure (SMILES),melting point [°C]
1,COC(=O)c1cc(-c2nccs2)cc2c1OC(c1ccccc1)(c1ccccc1)O2,154 to 155
2,N#CCCNC(=O)c1cccc(-c2ccc3c(c2)N(Cc2ccc(Cl)c(Cl)c2)CC3)c1,135 to 136
3,O=C1Cc2cccc(Nc3ccc(Cl)cc3)c2N1,190 to 192
4,O=C(N[C@H]1CCCNC1=O)c1cccc(F)c1,164 to 166
5,COc1cc(NN)c(F)cc1C#N,155 to 156
6,ClCc1ccc(-c2nc3cccc(Cl)c3o2)cc1,92 to 93
7,COC(=O)N1CC1C(N)=O (stereo not drawn),117 to 120
8,Fc1ccc(Nc2nc(OCC3CCCCC3)c3[nH]cnc3n2)cc1Cl,225 to 226
9,Cn1c(-c2ccc(Cl)cc2)c(C#N)c(Br)c1C(F)(F)F,126 to 129
10,COc1ccc(CNC(=O)c2cc([N+](=O)[O-])ccc2N)cc1,189 to 191
11,COc1ccc(S(=O)(=O)N2Cc3ccsc3C[C@@H]2C(=O)O)cc1,110
12,CSC1(C)C(=O)Nc2ccc(C3=NNC(=O)SC3C)cc21 (stereo not drawn),250
13,O=C(Cc1ccc(F)cc1)Nc1ccc(-n2nc(C(F)(F)F)cc2C2CC2)cc1,135 to 140
14,O=C(O)c1cnc(-c2nnn[nH]2)cc1-c1ccccc1,> 300
15,COc1ccc(CC(N)=O)cc1OC,142 to 144
16,NC(=O)c1ccc(-c2nn(-c3ccc(C(=O)O)cc3)c3ccc([N+](=O)[O-])cc23)cc1,320 to 322
17,N#CC(O)c1cccc2c(-c3ccccc3)c([N+](=O)[O-])oc12 (stereo not drawn),137 to 139
18,CN1COCNC1=N[N+](=O)[O-],137 to 139
19,O=c1n(-c2cc(O)c(Cl)cc2Cl)nc2n1CCCC2,211 to 212
20,CN1CCN(c2ccc(N)cc2C(F)(F)F)CC1,121 to 123
21,O=C(NOc1ccc([N+](=O)[O-])cc1)OCCCNC(=O)OC1CCN(C(=O)Oc2ccc(Oc3ccccc3)cc2)CC1,97 to 100
22,N#Cc1cccc(NC(=O)NCc2cccc3c2C(=O)N(C2CCC(=O)NC2=O)C3=O)c1 (stereo not drawn),228 to 230
23,COc1ccc(C(=O)c2c[nH]c(Cc3ccccc3)n2)cc1,108 to 110

row,Structure (SMILES),melting point [°C]
1,CCOC(=O)c1ncn2c1CN(Cc1ccc(OC)cc1OC)C(=O)c1cc(F)ccc1-2,159 to 160
2,Cc1ccc(CNC(=O)c2ccc3n2Cc2ccccc2N(C(=O)c2ccc(-c4ccccc4C)c(C)c2)C3)cc1,179 to 181
3,O=[N+]([O-])CC(SC(=S)N1CCCCC1)c1ccccc1 (stereo not drawn),86 to 90.5
4,Cc1ccc(S(=O)(=O)Nc2ccc(C#N)cc2Cl)cc1,186 to 187
5,C[C@H](NC(=O)Cc1cc(F)cc(F)c1)C(=O)N[C@@H]1C(=O)Nc2ccccc2S[C@@H]1c1ccc(Br)s1,139 to 140
6,CCOC(=O)c1ccc(CCN2CCN(C(=O)Cc3ccc(Cl)cc3)CC2)cc1,88 to 89
7,N#Cc1nn(-c2c(Cl)cc(C(F)(F)F)cc2Cl)c(NCc2cnccn2)c1S(=O)C(F)(F)F (stereo not drawn),169
8,COC(=O)C1=C(C)NC(C)=C(C(=O)N2CCC3(CC2)CC(=O)N(OC)C3=O)C1c1cccc([N+](=O)[O-])c1 (stereo not drawn),228 to 230
9,O=C(O)c1ccc(NCCc2cccs2)cc1,161 to 163
10,CN1c2ccc(-c3ccccc3)cc2Sc2cc(-c3ccccc3)ccc21,239 to 241
11,O=C(O)c1cn(C2CC2)c2c(F)c(N3CC(N4CCCC4)C3)c(F)cc2c1=O,224 to 227
12,Clc1ccc(C(c2ccccc2)c2cn[nH]c2)c(Cl)c1 (stereo not drawn),131
13,N#Cc1c(N2CCc3ccccc3CC2)[nH]c(=S)[nH]c1=O,> 200
14,CN1Cc2c(-c3noc(CCl)n3)ncn2-c2ccc(F)cc2C1=O,245 to 247
15,O=C(O)CCc1c(Br)cccc1C(F)(F)F,122 to 126
16,c1ccc(-c2ccc(-c3nc4n(n3)CCc3ccccc3-4)cc2)cc1,143 to 144
17,FC(F)(F)c1ccc2nccc(Br)c2c1,56
18,Cc1nn2c(C(F)(F)F)cc(-c3ccc(Cl)cc3)nc2c1C#N,238
19,NC(=O)[C@@H]1[C@H](NC(=O)/C(=N\OCC(=O)OCc2ccc([N+](=O)[O-])cc2)c2csc(NC(=O)CCl)n2)C(=O)N1OCC(=O)OCc1ccc([N+](=O)[O-])cc1,147 to 153
20,C#CCn1c(C(F)(F)F)c(C(C)O)sc1=O (racemic),77 to 78
21,O=c1nc(NC(=S)Nc2ccccc2)c(F)cn1S(=O)(=O)c1ccccc1,205 to 208
22,Cc1nc([C@@H](Cc2c[nH]c3ccccc23)NC(=O)OC(C)(C)C)oc1C,138 to 140

# Results, then the compound that gave them:
row,melting point [°C],Structure (SMILES)
1,172 to 178,N#Cc1ccc(OCc2ccc3ncoc3c2)cc1OC(C(=O)O)c1ccccc1Cl (racemic)
2,102 to 103,CCOC(=O)c1cn(Cc2ccc(OCc3ccccc3)cc2)nc1-c1ccccc1
3,68,c1ccc(COc2ccc(OCC3CO3)cc2)cc1 (stereo not drawn)
4,228 to 230,N#Cc1ccc2c(c1)S(=O)(=O)c1ccc(Cl)cc1C=C2
5,174,Cn1ccnc1Sc1ccc2[nH]nc(N)c2c1
6,69 to 71,CCCCCCCCCC(=O)Oc1ccc2c(N3CCN(CCCC(=O)c4ccc(F)cc4)CC3)noc2c1
7,60 to 61,CCOC(=O)c1cnc2sc(C)c(C)n12
8,101 to 102,COc1ccc(CCOc2cncc(Cl)c2)cc1OC
9,216,Cc1cc(N)nc(CCc2nc3cc(Br)cnc3[nH]2)c1
10,167 to 169,CCCN(CC)c1cc(C)nc(Oc2c(C)cc(C)cc2C)c1C
11,162,CC#CCOc1cc(Oc2ccc(C#N)cc2)ncn1
12,206,O=c1oc2cccc(O)c2c(OCCN2CCOCC2)c1-c1ccccc1
13,210 to 215,COc1cc(C)nc(NC(=O)NS(=O)(=O)c2ccccc2N)n1
14,160 to 161,COc1ccc(C(=O)Cc2c(Cl)cncc2Cl)c2cc(C(=O)N3CCN(C)CC3)oc12
15,164 to 166,CC(C)(C)OC(=O)N1CCN(c2c(F)cc(N3CC(CO)OC3=O)cc2F)CC1 (stereo not drawn)
16,167 to 168,Cc1oc(-c2ccccc2)nc1CCOc1ccc(C[C@H](OC(C)C)C(=O)O)c2sccc12
17,216 to 217,N#Cc1cc(-c2ncccc2C(=O)O)ccc1OCCc1ccccc1[N+](=O)[O-]
18,113 to 115,CCOC(=O)c1c(C)n(C(=O)c2ccccc2)c2ccc(Oc3nc(OC)cc(OC)n3)c(C(=O)O)c12
19,201 to 204,O=C(CNN1C(=O)c2ccccc2S1(=O)=O)N[C@@H](Cc1ccccc1)C(=O)O
20,208,CCN(CC)c1ccc(-c2cc(-c3ccc(C(=O)O)cc3)ccc2OCCCO)cc1C
21,130,CC(C)(C)OC(=O)N1CCCC(c2ncc(-c3cnc(-c4ccccc4)nc3)[nH]2)C1 (stereo not drawn)
22,251 to 255,COc1ccc(CC2SC(=O)NC2=O)c2c1N(CC(=O)O)C(=O)CC2 (stereo not drawn)
23,138 to 140,CC(C)(Oc1ccc(OCc2nc(-c3ccc(C(C)(C)C)cc3)no2)cc1)C(=O)O
24,56 to 60,C=CCOC1=NC(OCC)=NS(=O)(=O)N1C
25,154 to 156,CCCCS(=O)(=O)NCc1ccc(CCN2CCN(c3ccncc3)CC2)cc1
26,204,CC1CCCC(C)N1S(=O)(=O)N[C@@H](Cc1ccc(Nc2nccc3cnccc23)cc1)C(=O)O (stereo partly drawn)
27,181,Cc1ccc(Cn2nc(CNC(=O)NC(C)(C)C)cc2-c2ccc(Cl)c(Cl)c2)cc1Cl

row,melting point [°C],Structure (SMILES)
1,157 to 160,CN(c1ccc2c(c1)CCC2)c1nc(=O)c2cccnc2s1
2,212 to 214,CCOC(=O)C1=C(C)NC(O)(c2cccc(Cl)c2)C(C(=O)OCC)C1c1cccc([N+](=O)[O-])c1 (stereo not drawn)
3,125 to 126,CC1=C(C(=O)OCCN(C)C)C(c2cccc([N+](=O)[O-])c2)C(C(=O)OCC2CC2)=C(C)N1 (stereo not drawn)
4,150 to 154,CSC(N)=C(CCN1CCC(c2noc3cc(F)ccc23)CC1)[N+](=O)[O-]
5,118 to 120,CCOC(=O)c1ccc(C(=O)CCc2ccc(S(C)(=O)=O)cc2)cc1
6,96 to 98,CCN(CC)c1ccc(-n2c(C(F)(F)F)nn(C)c2=S)cn1
7,111,COC(=O)CCCC(=O)c1ccc(OC)c(I)n1
8,82 to 83,Cc1cnc(C#Cc2ccccc2)s1
9,216 to 217,O=C(O)CCc1cc2nc(C(F)(F)F)ccc2n1S(=O)(=O)c1cccc2cccnc12
10,103 to 108,C=C1CCC2C3CCC4CC(O)C(OCC)CC4(C)C3C(=O)CC12C (stereo not drawn)
11,60,CCOC(=O)c1ccc(CC#N)cc1Cl
12,121 to 122,CCOC(=O)COc1cc(Cl)c2c(=O)c(-c3ccc(OC)cc3)coc2c1
13,115 to 120,CCOC(=O)C(C)Oc1ccc(-c2nc(-c3ccc(OC(C)C(=O)OCC)cc3O)nc(-c3ccc(OC(C)C(=O)OCC)cc3O)n2)c(O)c1 (stereo not drawn)
14,126 to 127,CC1(C)CC(S(=O)(=O)Cc2c(C(F)(F)F)nn(C(F)F)c2Cl)=NO1
15,221 to 222,COC(=O)C1=C(C)NC(C)=C(c2nc(C)no2)C1c1cccc([N+](=O)[O-])c1 (stereo not drawn)
16,138 to 139,CC(C)(C)OC(=O)NC(CI)c1ccc(F)cc1 (stereo not drawn)
17,120 to 122,COc1cc(-c2ncc(Cl)cc2F)c(F)cc1Cl
18,80 to 81,Cc1ccccc1Cn1cnc(C#N)c1C#N
19,203 to 204,COC(=O)CCc1cc(S(C)(=O)=O)cc(-c2nc(=O)c3ccc(Cl)cc3s2)n1
20,146,Cc1c(-c2ccnnc2)ssc1=S
21,168 to 171,COc1ccc(CNC(=O)c2cc3c(=O)n(CC#Cc4ccccc4)c(=O)n(C)c3s2)cc1
22,170,CCOc1ccc(F)cc1C(=O)c1sc2nc(C)c(C)cc2c1N
23,258 to 260,O=C(CC(=O)Oc1cc(O)cc(O)c1)Oc1cc(O)cc(O)c1
24,148 to 150,Cc1ccc(S(=O)(=O)N2CCCCC2)cc1
25,53.5 to 54.5,COc1cc(C(=O)CCCC2CCCCC2)c(OC)cc1C
26,180 to 182,CCOC(=O)C(=O)NS(=O)(=O)Cc1nc(-c2ccc(Cl)c(Cl)c2)cs1
